Assay: in vitro
Conditions: human, hela cells, % viability

Row | Compound | viability at 28.5 h, 10 µM [%]
1 | COC(=O)CC[C@H]1CNC(=O)[C@@H]2[C@@H](CCN2S(C)(=O)=O)N1C [CBK289019] | 112
2 | CN1[C@@H](CCC(=O)N2CCc3ccccc32)CNC(=O)[C@@H]2[C@H]1CCN2Cc1ccc(O)cc1 [CBK289021] | 88.9
3 | CN1CCC(N2CC[C@@H]3[C@H]2C(=O)NC[C@H](CCC(=O)NCc2ccc(F)cc2)N3C)CC1 [CBK289022] | 90.6
4 | COc1ccc(CNC(=O)CC[C@H]2CNC(=O)[C@H]3NCC[C@H]3N2C)cc1 [CBK289025] | 87.6
5 | CN1CCC(N2CC[C@@H]3[C@H]2C(=O)NC[C@H](CCC(=O)NCc2ccccc2)N3C)CC1 [CBK289026] | 114
6 | CC(C)N1CC[C@@H]2[C@H]1C(=O)NC[C@H](CCC(=O)NCc1ccccc1)N2C [CBK289027] | 91.7
7 | CN1CC[C@@H]2[C@H]1C(=O)NC[C@H](CCC(=O)NCc1cccs1)N2C [CBK289028] | 115
8 | CN1[C@@H](CCC(=O)Nc2ccccc2)CNC(=O)[C@@H]2[C@H]1CCN2C1CCOCC1 [CBK289029] | 108
9 | CN1[C@@H](CCC(=O)N2CCOCC2)CNC(=O)[C@@H]2[C@H]1CCN2C1CCCCC1 [CBK289032] | 88.9
10 | C#CCNC(=O)CC[C@H]1CNC(=O)[C@@H]2[C@@H](CCN2Cc2ccc(C)cc2)N1C [CBK289036] | 101
11 | COC[C@H]1CCCN1C(=O)CC[C@H]1CNC(=O)[C@@H]2[C@@H](CCN2C(C)C)N1C [CBK289038] | 103
12 | COC[C@H]1CCCN1C(=O)CC[C@H]1CNC(=O)[C@@H]2[C@@H](CCN2C2CCCCC2)N1C [CBK289039] | 89.7
13 | CN1CCC(N[C@H]2CC(C)(C)[C@@H]3C[C@@](C)(O)CC[C@]23CCC(=O)N2CCOCC2)CC1 [CBK289040] | 97.2
14 | CC(=O)N1CCN(C(=O)C[C@@H]2C[C@@H](C(C)C)[C@H](CNC(=O)c3cccnc3)C=C2C)CC1 [CBK289046] | 102
15 | CC1=C[C@@H](CNS(=O)(=O)c2ccccc2)[C@H](C(C)C)C[C@H]1CC(=O)N1CCOCC1 [CBK289049] | 79.7
16 | CC1=C[C@@H](CNC(=O)c2ccncc2)[C@H](C(C)C)C[C@H]1CC(=O)N1CCOCC1 [CBK289052] | 80.2
17 | CC1=C[C@@H](CNC(=O)c2cccnc2)[C@H](C(C)C)C[C@H]1CC(=O)N1CCOCC1 [CBK289053] | 92.4
18 | CC1=C[C@@H](CNS(=O)(=O)c2ccccc2)[C@H](C(C)C)C[C@H]1CC(=O)N1CCCC1 [CBK289054] | 122
19 | CC1=C[C@@H](CNC(=O)c2cccnc2)[C@H](C(C)C)C[C@H]1CC(=O)N1CCCC1 [CBK289055] | 87.7
20 | CN1C(=O)COC[C@@H]1[C@H](O)c1ccc(NC(=O)C2CC2)cc1 [CBK289057] | 83.1
21 | COCC(=O)Nc1ccc([C@@H](O)[C@H]2COCC(=O)N2C)cc1 [CBK289058] | 106
22 | O=C(Nc1ccc([C@@H](O)[C@H]2COCC(=O)N2Cc2ccccc2F)cc1)c1cnccn1 [CBK289060] | 83.2
23 | O=C(Nc1ccc([C@@H](O)[C@H]2COCC(=O)N2Cc2ccc(F)cc2)cc1)c1cccnc1 [CBK289062] | 93.3
24 | CC(C)NC(=O)N1CCC[C@@H](O)[C@H](NC(=O)c2ccc(OCc3ccccc3)cc2)C1 [CBK289063] | 106
25 | COc1ccc(C(=O)N[C@@H]2CN(Cc3ccc(CO)o3)CCC[C@H]2O)cc1 [CBK289067] | 89.8

Row | Compound | viability at 28.5 h, 10 µM [%]
26 | CCNC(=O)N1CCC[C@@H](O)[C@H](NC(=O)c2ccc(OCc3c(C)noc3C)cc2)C1 [CBK289068] | 84.2
27 | Cc1noc(C)c1COc1ccc(C(=O)N[C@@H]2CN(C(=O)NC(C)C)CCC[C@H]2O)cc1 [CBK289069] | 93.1
28 | O=C(N[C@@H]1CNCCC[C@H]1O)c1ccc(OCCN2CCCC2)cc1 [CBK289070] | 101
29 | COCCOc1ccc(C(=O)N[C@@H]2CNCCC[C@H]2O)cc1 [CBK289071] | 94.6
30 | CC(=O)Nc1ccc2n(c1=O)C[C@H]1C[C@@H]2CN(C(=O)COc2ccccc2)C1 [CBK289074] | 89
31 | COCCC(=O)N1C[C@@H]2C[C@H](C1)c1ccc(NC(=O)Nc3cccc(F)c3)c(=O)n1C2 [CBK289075] | 84.6
32 | O=C(Nc1ccc2n(c1=O)C[C@@H]1CNC[C@H]2C1)c1ccc(F)cc1 [CBK289078] | 98.4
33 | O=C(COc1ccccc1)Nc1ccc2n(c1=O)C[C@H]1C[C@@H]2CN(C(=O)c2ccccc2)C1 [CBK289079] | 76.6
34 | O=C(NCc1ccco1)[C@H]1CN2CCC1C[C@@H]2Cn1cc(CO)nn1 (stereo partly drawn) [CBK289080] | 113
35 | CC(C)(C)c1cn(C[C@H]2CC3CCN2C[C@@H]3C(=O)NCc2ccc(F)cc2)nn1 (stereo partly drawn) [CBK289081] | 102
36 | O=C(NC1CCCCC1)[C@H]1CN2CCC1C[C@@H]2Cn1cc(CO)nn1 (stereo partly drawn) [CBK289086] | 102
37 | CNCc1cn(C[C@H]2CC3CCN2C[C@@H]3C(=O)N2CCCC2)nn1 (stereo partly drawn) [CBK289087] | 104
38 | Nc1cccc(-c2cn(C[C@H]3CC4CCN3C[C@@H]4C(=O)NCc3cccnc3)nn2)c1 (stereo partly drawn) [CBK289088] | 84.3
39 | CN(C)C(=O)[C@H]1CN2CCC1C[C@@H]2Cn1cc(CCO)nn1 (stereo partly drawn) [CBK289089] | 89.9
40 | CC(C)NC(=O)[C@H]1CN2CCC1C[C@@H]2Cn1cc(C2(O)CCCC2)nn1 (stereo partly drawn) [CBK289090] | 103
41 | O=C(Nc1ccccc1)[C@H]1CN2CCC1C[C@@H]2Cn1cc(C2(O)CCCC2)nn1 (stereo partly drawn) [CBK289091] | 103
42 | O=C(NC1CC1)[C@H]1CN2CCC1C[C@@H]2Cn1cc(C2(O)CCCC2)nn1 (stereo partly drawn) [CBK289092] | 82.1
43 | Cn1nc(-c2ccccc2)cc1[C@H]1CN2CC[C@H]1C[C@@H]2CNC(=O)N1CCOCC1 [CBK289094] | 113
44 | Cn1nc(-c2ccccc2)cc1[C@H]1CN2CC[C@H]1C[C@@H]2CNS(C)(=O)=O [CBK289096] | 99.2
45 | CC(C)NC(=O)NC[C@H]1C[C@@H]2CCN1C[C@@H]2c1cc(-c2ccccc2)nn1C [CBK289097] | 84.5
46 | Cn1nc(-c2cccs2)cc1[C@H]1CN2CC[C@H]1C[C@@H]2CNC(=O)c1ccco1 [CBK289100] | 86.6
47 | CCCS(=O)(=O)NC[C@H]1C[C@@H]2CCN1C[C@@H]2c1cc(-c2cccs2)nn1C [CBK289101] | 98.4
48 | CC(C)NC(=O)NC[C@H]1C[C@@H]2CCN1C[C@@H]2c1cc(C2CCCCC2)nn1C [CBK289107] | 90.8
49 | Cn1nc(-c2ccc(F)cc2)cc1[C@H]1CN2CC[C@H]1C[C@@H]2CNS(C)(=O)=O [CBK289109] | 98.8
50 | CC(C)NC(=O)NC[C@H]1C[C@@H]2CCN1C[C@@H]2c1cc(-c2ccc(F)cc2)nn1C [CBK289111] | 88.5

Row | Compound | viability at 28.5 h, 10 µM [%]
51 | O=C(NC[C@H]1C[C@@H]2CC[N@]1C[C@@H]2CN1CCN(c2ncccn2)CC1)c1ccco1 [CBK289115] | 88.1
52 | CC(C)NC(=O)NC[C@H]1C[C@@H]2CC[N@]1C[C@@H]2CN1CCN(c2ncccn2)CC1 [CBK289116] | 89.7
53 | O=C(NC[C@H]1C[C@@H]2CC[N@]1C[C@@H]2CN1CCN(c2ncccn2)CC1)Nc1ccsc1 [CBK289117] | 90.3
54 | CCC(CC)c1cc([C@H]2CN3CC[C@H]2C[C@@H]3CO)nc(-c2ccncc2)n1 [CBK289118] | 100
55 | Cc1nc(C2CCCC2)cc([C@H]2CN3CC[C@H]2C[C@@H]3CNS(C)(=O)=O)n1 [CBK289121] | 87.6
56 | CCNC(=O)NC[C@H]1C[C@@H]2CCN1C[C@@H]2c1cc(C2CCCC2)nc(C)n1 [CBK289122] | 81.6
57 | Cc1nc(-c2ccccc2)cc([C@H]2CN3CC[C@H]2C[C@@H]3CNS(C)(=O)=O)n1 [CBK289124] | 114
58 | Cc1nc(-c2ccccc2)cc([C@H]2CN3CC[C@H]2C[C@@H]3CNC(=O)NC(C)C)n1 [CBK289126] | 89.9
59 | Cc1nc(-c2cccs2)cc([C@H]2CN3CC[C@H]2C[C@@H]3CNC(=O)c2ccco2)n1 [CBK289127] | 86.9
60 | CC(=O)NC[C@H]1C[C@@H]2CCN1C[C@@H]2c1cc(-c2ccco2)nc(C)n1 [CBK289128] | 102
61 | CC(=O)N1CCC(NC[C@H]2C[C@@H]3CCN2C[C@@H]3c2cc(C3CCCC3)nc(C)n2)CC1 [CBK289129] | 84.3
62 | CC[C@H]1CN(C(C)=O)CC[C@H]1CC(=O)Nc1nccs1 [CBK289130] | 97.8
63 | CC[C@H]1CN(C(C)=O)CC[C@H]1CC(=O)NCc1ccc2c(c1)OCO2 [CBK289131] | 89.2
64 | CC[C@H]1CN(C(=O)C2CC2)CC[C@H]1CC(=O)NCc1ccc2c(c1)OCO2 [CBK289133] | 91.9
65 | CC[C@H]1CN(C(=O)C(C)(C)C)CC[C@H]1CC(=O)NCc1cccnc1 [CBK289135] | 97.8
66 | C=CCNC(=O)C[C@@H]1CCN(C(=O)c2ccnc(Cl)c2)C[C@@H]1CC [CBK289136] | 94.3
67 | CC[C@H]1CN(C(=O)c2ccnc(Cl)c2)CC[C@H]1CC(=O)NCc1ccc2c(c1)OCO2 [CBK289137] | 110
68 | CCCNC(=O)C[C@@H]1CCN(C(=O)c2ccnc(Cl)c2)C[C@@H]1CC [CBK289138] | 99.3
69 | CC[C@H]1CN(S(=O)(=O)c2ccccc2)CC[C@H]1CC(=O)N(C)CC#N [CBK289140] | 108
70 | CC[C@H]1CN(S(C)(=O)=O)CC[C@H]1CC(=O)NCc1ccco1 [CBK289141] | 89.2
71 | C=CCNC(=O)C[C@@H]1CCN(C(=O)c2cccnc2)C[C@@H]1CC [CBK289142] | 92.3
72 | CC[C@H]1CN(C(=O)c2cccnc2)CC[C@H]1CC(=O)NCc1ccc(F)cc1 [CBK289143] | 88.6
73 | COCc1cc(C[C@H]2CNCC[C@H]2CC(=O)N2CCc3ccccc3C2)no1 [CBK289144] | 88.4
74 | CC(C)NC(=O)C[C@@H]1CCNC[C@@H]1Cc1cc(-c2ccccc2)on1 [CBK289147] | 83.7
75 | O=C(C[C@@H]1CCNC[C@@H]1Cc1cc(-c2ccccc2)on1)Nc1cccc(O)c1 [CBK289149] | 102

Reference: PMC12040169 (PLOS Biology, 2025)
